Reference: ChEMBL document CHEMBL5357078, “Synthesis and Structural Optimization of ATG4B Inhibitors for the Attenuation of Autophagy in Glioblastoma” (ACS Med Chem Lett, 2024)
The source made the active and inactive calls.

How the values were obtained:
Type in all cases: functional, cell-based
GSC83 [1] = assay: Induction of autophagy in human GSC83 cells assessed as inhibition of ATG4B-induced LC3-1 to LC3-2 conversion incubated for 72 hrs by immunoblotting analysis
GSC83 [2] = assay: Induction of autophagy in human GSC83 cells assessed as degradation of p62/SQSTM1 substrate incubated for 72 hrs by immunoblotting analysis
GSC576 [3] = assay: Induction of autophagy in human GSC576 cells assessed as degradation of p62/SQSTM1 substrate incubated for 72 hrs by immunoblotting analysis
GSC576 [4] = assay: Induction of autophagy in human GSC576 cells assessed as inhibition of ATG4B-induced LC3-1 to LC3-2 conversion incubated for 72 hrs by immunoblotting analysis
GSC83 [5] = assay: Induction of autophagy in human GSC83 cells assessed as inhibition of sphere formation upto 100 uM incubated for 7 days; details: time 7.0 day
GSC576 [6] = assay: Induction of autophagy in human GSC576 cells assessed as inhibition of sphere formation upto 100 uM incubated for 7 days; details: time 7.0 day
GSC83 [7] = assay: Antiproliferative activity against human GSC83 cells assessed as reduction in cell viability upto 100 uM incubated for 72 hrs by celltiter glo luminescent assay
GSC576 [8] = assay: Antiproliferative activity against human GSC576 cells assessed as reduction in cell viability upto 100 uM incubated for 72 hrs by celltiter glo luminescent assay
GSC83 [9] = assay: Induction of autophagy in human GSC83 cells assessed as inhibition of sphere formation upto 10 uM incubated for 7 days; details: time 7.0 day
GSC576 [10] = assay: Induction of autophagy in human GSC576 cells assessed as inhibition of sphere formation upto 10 uM incubated for 7 days; details: time 7.0 day

Measured: Activity

S=C(Nc1ccccn1)c1ccccn1
active: GSC83 [1] | GSC83 [2] | GSC576 [3] | GSC576 [4] | GSC83 [5] | GSC576 [6]

S=C(Nc1ccccn1)c1ccc2ccccc2n1
active: GSC83 [1] | GSC83 [2] | GSC576 [3] | GSC576 [4] | GSC83 [7] | GSC576 [8] | GSC83 [9] | GSC576 [10]
